Tested on: resistant strains of fungi (Candida spp., Microsporium, Trich. mentagrophytes, Aspergillus niger)
Assay: Antifungal activity on the resistant strains
Assay type: cell-based
Conditions: resistant fungal strains

Row | SMILES | antifungal activity, in words
1 | C[C@@H]1[C@H](O)[C@@H](C)/C=C/C=C/C=C/C=C/C=C/C=C/C=C/[C@H](O[C@@H]2O[C@H](C)[C@@H](O)[C@H](N)[C@@H]2O)C[C@@H]2O[C@](O)(C[C@@H](O)C[C@@H](O)[C@H](O)CC[C@@H](O)C[C@@H](O)CC(=O)O[C@H]1C)C[C@H](O)[C@H]2C(=O)O [amphotericin] | did not exert antifungal activity
2 | C[C@@H]1[C@H](O)[C@@H](C)/C=C/C=C/CC/C=C/C=C/C=C/C=C/C(O[C@H]2O[C@H](C)[C@@H](O)[C@H](N)[C@@H]2O)CC2O[C@](O)(CC(O)C(O)CCC(O)CC(O)CC(O)CC(=O)O[C@H]1C)CC(O)C2C(=O)O (some centres unmarked) [nystatin] | did not exert antifungal activity

Reference: US20220395555A1, “Derivatives of antibiotics” (priority 2020, published 2022)
